Reference: US20250066864A1, “METHODS FOR IDENTIFYING ADAR1 INHIBITORS, AND COMPOSITIONS AND METHODS OF USE IN TREATING CANCER” (The Wistar Institute of Anatomy and Biology, priority 2021, published 2025)
Values after ≈ are worked out from the molar mass of the structure shown. “Also recorded” adds a separate entry of the source.

Legend:
U2OS cells = experiment: Apo Tox-Glo viability assay, U2OS cells; assay type: cell-based, human; conditions: 5 μM, 3 days
Procedure: HeLa, U2OS, and MRI90 cells were cultured in the presence of ADAR1 inhibitors, 5 μM or 20 μM, for 3 days. Their viability was examined using the Apo Tox-Glo assay system (Promega), which measures plasma membrane penetration of glycyl-phenyl-alanyl-aminofluorocoumarin peptide. Control, 0.3% DMSO. […] Data are mean±S.D. (n=3, biological replicates).
(§1) FIGS. 29A-29D Characterization of Compound #13 effects in cancer cells. […] Viability was examined using the Apo Tox-Glo assay system (Promega). Control, 0.3% DMSO. (FIG. 29B) Western blotting analysis of HeLa cells treated with Compound #13 (10 μM). […] (FIG. 29D) Activation of the IFN signaling pathway. HSC-4 squamous carcinoma cells were treated with Compound #13 at 10 μM (12 hrs). RNA samples were analyzed by qRT-PCR to monitor expression levels of ISGs.

[1] = test system: IFN signaling pathway, HSC-4 squamous carcinoma cells; experiment: qRT-PCR of ISG expression in HSC-4 cells; assay type: cell-based; conditions: 10 μM, 12 hrs
Procedure: as §1
Inhibition of ADAR1 mediated A-to-I editing of 3′UTR Alu dsRNAs activates the dsRNA sensing mechanism and induces IFNs (FIG. 2A). This activation of IFN signaling is required to overcome the tumor resistance to PD-1 based immunotherapy (FIG. 2B) (2), one of our motivations to identify ADAR1 inhibitors.

[2] = water solubility by LC-MS/MS; assay type: physicochemical; conditions: water with 1% DMSO, kinetic from dmso stock, tested at 100 μM in 1% DMSO
ADAR1p110-E912A = molecular target: T1, ADAR1p110-E912A (Homo sapiens, UniProt P55265, E912A); experiment: surface plasmon resonance (Biacore T200), ADAR1p110-E912A; assay type: binding; conditions: SPR
T1 sequence (P55265 1-931 isoform P55265-5 E617A): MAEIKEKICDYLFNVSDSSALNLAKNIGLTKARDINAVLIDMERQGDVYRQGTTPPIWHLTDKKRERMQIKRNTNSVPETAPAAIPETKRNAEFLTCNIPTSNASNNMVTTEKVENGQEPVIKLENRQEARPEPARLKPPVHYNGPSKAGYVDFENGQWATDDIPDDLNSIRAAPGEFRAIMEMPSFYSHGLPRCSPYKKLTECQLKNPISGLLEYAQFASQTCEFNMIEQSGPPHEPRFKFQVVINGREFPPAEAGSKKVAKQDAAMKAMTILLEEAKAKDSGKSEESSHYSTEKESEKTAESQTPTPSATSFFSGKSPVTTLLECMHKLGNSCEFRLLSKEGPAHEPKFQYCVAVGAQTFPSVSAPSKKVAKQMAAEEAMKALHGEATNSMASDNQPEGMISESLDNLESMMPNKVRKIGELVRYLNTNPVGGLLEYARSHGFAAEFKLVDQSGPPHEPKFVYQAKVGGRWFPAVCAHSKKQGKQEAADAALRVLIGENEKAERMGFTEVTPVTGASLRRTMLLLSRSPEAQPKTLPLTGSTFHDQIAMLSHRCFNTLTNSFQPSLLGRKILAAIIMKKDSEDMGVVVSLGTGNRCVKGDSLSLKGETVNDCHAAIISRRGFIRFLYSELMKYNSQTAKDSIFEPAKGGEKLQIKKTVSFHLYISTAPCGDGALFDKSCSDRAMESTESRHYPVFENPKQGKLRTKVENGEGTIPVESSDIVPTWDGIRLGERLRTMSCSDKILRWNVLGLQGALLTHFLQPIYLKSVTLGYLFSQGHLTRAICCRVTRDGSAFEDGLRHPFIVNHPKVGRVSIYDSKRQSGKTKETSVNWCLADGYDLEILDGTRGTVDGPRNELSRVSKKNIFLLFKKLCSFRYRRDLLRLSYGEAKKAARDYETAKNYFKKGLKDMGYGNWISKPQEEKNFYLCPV
From the text: We synthesized 2 additional analogs of Compound #13 for preliminary structure activity relationships (SAR), namely, #13-Analog 1 and #13-Analog 2 (Table 3). Compound #13-Analog 1 lacks the 4-cyano moiety and #13-Analog 2 shifts the cyano to the 2-position of the phenyl ring. […] We hypothesized that the cyano-phenyl moiety will coordinate with the zinc atom in the active site when bound to ADAR1. We evaluated the ability of Compound #13 to bind to ADAR1 using surface plasmon resonance (SPR) on the Biacore T200. […] We modeled Compound #13 into the ADAR2 active site (56).

N#Cc1ccc(NC(=O)c2sc3ccccc3c2Cl)cc1 [Compound #13, 3-chloro-N-(4-cyanophenyl)-1-benzothiophene-2-carboxamide]
viability of U2OS (ALT) cells (U2OS cells): very little effects | expression of ISGs [1]: upregulated expression of known ISGs, MDA5, OAS1, ISG15, MX1, and MX2 | solubility [2]: 0.59 µM (≈ 0.185 µg/mL) | binding to mutant ADAR1p110-E912A (ADAR1p110-E912A): did not bind; also recorded: not to mutant E912A
